The test system of experiment [1] is human mixed lymphocyte reaction (MLR). As to the kind of experiment: human mixed lymphocyte reaction (MLR) assay, immunosuppressant activity. The format is cell-based. Conditions: in vitro. Here is the method:
The immunosuppressant activity of the compounds of the present invention was determined using the human mixed lymphocyte reaction (MLR) assay described by Kino, T. et al. in Transplantation Proceedings XIX(5):36-39, Suppl. 6 (1987), incorporated herein by reference.

The subject of a further experiment is P-glycoprotein. Conditions: known; increasing sensitivity of multidrug resistant (MDR) cells to chemotherapeutic agents; cited from earlier work.

As a reminder, the IC50 is the concentration needed to halve the response being measured. Low readings indicate greater potency, high ones weaker potency.

As for `CC[C@@H]1/C=C(\C)C[C@H](C)C[C@H](OC)[C@H]2O[C@@](O)(C(=O)C(=O)N3CCCC[C@H]3C(=O)O[C@H](/C(C)=C/[C@@H]3CC[C@H](NCCCN(C)C)[C@H](OC)C3)[C@H](C)[C@@H](O)CC1=O)[C@H](C)C[C@@H]2OC` [Example 7], the IC50 in experiment [1] is less than 1000 nM.

With `CC[C@@H]1/C=C(\C)C[C@H](C)C[C@H](OC)[C@H]2O[C@@](O)(C(=O)C(=O)N3CCCC[C@H]3C(=O)O[C@H](/C(C)=C/[C@@H]3CC[C@H](NCCN(CC)CC)[C@H](OC)C3)[C@H](C)[C@@H](O)CC1=O)[C@H](C)C[C@@H]2OC` [Example 13], the IC50 in experiment [1] was less than 1000 nM.

Regarding `CC[C@@H]1/C=C(\C)C[C@H](C)C[C@H](OC)[C@H]2O[C@@](O)(C(=O)C(=O)N3CCCC[C@H]3C(=O)O[C@H](/C(C)=C/[C@@H]3CC[C@H](N(CC)CCN(CC)CC)[C@H](OC)C3)[C@H](C)[C@@H](O)CC1=O)[C@H](C)C[C@@H]2OC` [Example 29], the IC50 in experiment [1] was less than 1000 nM.

In the case of `CC[C@@H]1/C=C(\C)C[C@H](C)C[C@H](OC)[C@H]2O[C@@](O)(C(=O)C(=O)N3CCCC[C@H]3C(=O)O[C@H](/C(C)=C/[C@@H]3CC[C@@H](NCCCN(C)C)[C@H](OC)C3)[C@H](C)[C@@H](O)CC1=O)[C@H](C)C[C@@H]2OC` [Example 47], in experiment [1], the concentration for half-maximal inhibition (IC50) is less than 1000 nM.

For the compound `C=CC[C@@H]1/C=C(\C)C[C@H](C)C[C@H](OC)[C@H]2O[C@@](O)(C(=O)C(=O)N3CCCC[C@H]3C(=O)O[C@H](/C(C)=C/[C@@H]3CC[C@@H](O)[C@H](OC)C3)[C@H](C)[C@@H](O)CC1=O)[C@H](C)C[C@@H]2OC` [FK-506], the “modulators of P-glycoprotein” value with P-glycoprotein is given as “effective modulators of P-glycoprotein”.

The values are drawn from patent publication US5541189A, “Substituted aliphatic amine-containing macrocyclic immunomodulators” (Abbott Laboratories, priority 1995, dated 1996).
